According to patent US20240409519A1, “HYDROGENATED QUINOXALINES” (OTSUKA PHARMACEUTICAL CO., LTD., priority 2021, published 2024):

Key:
[1] = target: T1, norepinephrine (NE) uptake (Rattus norvegicus, UniProt Q63380); test: Norepinephrine (NE) uptake inhibitory activity using rat brain synaptosome; type: biochemical; conditions: rat hippocampus synaptosome, tritium-labeled NE 12 nM; read-out: IC50 (nM), norepinephrine (NE) uptake inhibition
T1 construct: used as crude synaptosomal fraction; from tissue; host or cells: rat hippocampus, crude synaptosomal fraction
T1 sequence (Q63380 1-617): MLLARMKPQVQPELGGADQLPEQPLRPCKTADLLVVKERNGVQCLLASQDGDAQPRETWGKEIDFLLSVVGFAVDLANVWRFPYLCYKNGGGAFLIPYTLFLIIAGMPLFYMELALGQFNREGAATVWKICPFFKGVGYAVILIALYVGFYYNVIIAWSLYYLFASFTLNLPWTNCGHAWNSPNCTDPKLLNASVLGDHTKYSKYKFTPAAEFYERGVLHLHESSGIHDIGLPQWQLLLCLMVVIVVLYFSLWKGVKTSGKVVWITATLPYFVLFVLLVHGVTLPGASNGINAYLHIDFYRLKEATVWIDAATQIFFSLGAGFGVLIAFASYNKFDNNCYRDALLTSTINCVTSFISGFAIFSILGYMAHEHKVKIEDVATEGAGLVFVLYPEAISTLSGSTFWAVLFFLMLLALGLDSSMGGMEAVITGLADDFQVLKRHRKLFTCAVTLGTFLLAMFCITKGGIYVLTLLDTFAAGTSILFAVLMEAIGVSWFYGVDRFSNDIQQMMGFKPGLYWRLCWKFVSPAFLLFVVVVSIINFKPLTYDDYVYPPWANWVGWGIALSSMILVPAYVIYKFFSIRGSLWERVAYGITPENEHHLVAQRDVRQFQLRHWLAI
Procedure: (§1) Male Wistar rats were decapitated, each brain was removed, and the hippocampus was cut out. […] The homogenate was centrifuged at 1000 g at 4° C. for 10 minutes, and the supernatant was further centrifuged at 20000 g at 4° C. for 20 minutes. The pellet was suspended in an incubation buffer (20 mM Hepes buffer (pH 7.4) containing 10 mM glucose, 145 mM sodium chloride, 4.5 mM potassium chloride, 1.2 mM magnesium chloride and 1.5 mM calcium chloride) and used as crude synaptosomal fraction.
Each well of a 96-well round-bottom plate was used for the uptake reaction in a total volume of 200 μL solution containing purgurin (final concentration 10 μM) and ascorbic acid (final concentration 0.2 mg/mL).
After 10 minutes, the uptake reaction was terminated by suction filtration onto a 96-well glass fiber filter plate. The filters were rinsed with cold physi-ological saline solution, dried thoroughly, and micro scintillation 0 (Perkin-Elmer) was added thereto. Then, the residual radioactivity on the filters was measured.
The uptake value when only solvent was added was set as 100%, the uptake value when unlabeled NE (final concentration 10 μM) was added as 0% (nonspecific uptake value), and the 50% inhibitory concentration was calculated from the concentration of the test compound and its inhibitory activity.

dopamine (DA) uptake = target: T2, dopamine (DA) uptake (Rattus norvegicus, UniProt P23977); test: Dopamine (DA) uptake inhibitory activity using rat brain synaptosome; type: biochemical; conditions: rat striatum synaptosome, tritium-labeled DA 2 nM; read-out: IC50 (nM), dopamine (DA) uptake inhibition
T2 construct: used as crude synaptosomal fraction; from tissue; host or cells: rat striatum, crude synaptosomal fraction
T2 sequence (P23977 whole entry): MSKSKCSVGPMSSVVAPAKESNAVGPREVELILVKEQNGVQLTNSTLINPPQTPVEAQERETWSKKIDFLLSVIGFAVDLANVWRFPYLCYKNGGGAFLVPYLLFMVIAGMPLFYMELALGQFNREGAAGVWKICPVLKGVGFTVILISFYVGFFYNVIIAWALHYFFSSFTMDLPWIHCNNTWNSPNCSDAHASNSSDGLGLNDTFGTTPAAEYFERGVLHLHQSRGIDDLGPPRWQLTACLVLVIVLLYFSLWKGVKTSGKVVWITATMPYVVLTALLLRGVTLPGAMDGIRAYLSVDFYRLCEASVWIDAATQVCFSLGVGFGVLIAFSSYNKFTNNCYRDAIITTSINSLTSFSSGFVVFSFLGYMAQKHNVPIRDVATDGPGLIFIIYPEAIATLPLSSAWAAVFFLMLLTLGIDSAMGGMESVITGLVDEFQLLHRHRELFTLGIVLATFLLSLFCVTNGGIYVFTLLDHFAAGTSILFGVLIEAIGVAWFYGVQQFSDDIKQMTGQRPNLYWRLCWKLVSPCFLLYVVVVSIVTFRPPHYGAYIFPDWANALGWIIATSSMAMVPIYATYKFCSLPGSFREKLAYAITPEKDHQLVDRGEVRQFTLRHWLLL
Procedure: as §1, with “striatum” for “hippocampus”
Each well of a 96-well round-bottom plate was used for the uptake reaction in a total volume of 200 μl solution containing purgurin (final concentration 10 μM) and ascorbic acid (final concentration 0.2 mg/mL). In other words, solvent, unlabeled DA or step-diluted test compound was added to each well, and one-tenth of the final volume of the synaptosomal fraction was added to each well, followed by pre-incubation at 37° C. for 10 minutes, and then tritium-labeled DA solution (final concentration 2 nM) was added and the uptake reaction was initiated at 37° C. After 10 minutes, the uptake reaction was terminated by suction filtration onto a 96-well glass fiber filter plate. The filters were rinsed with cold physi-ological saline solution, dried thoroughly, and micro scintillation 0 (Perkin-Elmer) was added thereto. Then, the residual radioactivity on the filters was measured.
The uptake value when only solvent was added was set as 100%, the uptake value when unlabeled DA (final concentration 10 μM) was added as 0% (nonspecific uptake value), and the 50% inhibitory concentration was calculated from the concentration of the test compound and its inhibitory activity.

CYP3A4 = target: T3, CYP3A4 (Homo sapiens, UniProt P08684); test: CYP inhibition test (1): inhibition rate (%) at one concentration, CYP3A4; type: in vitro ADME; conditions: human liver microsomes, pH 7.4, probe midazolam (0.005 mmol/L); test compound 0.01 mmol/L, human liver microsome 0.1 mg/mL, substrate midazolam, 37° C. 10 minutes; read-out: inhibition rate (%) 3A4
T3 construct: a human liver microsome solution containing three CYP-specific substrates; from tissue; host or cells: human liver microsomes
T3 sequence (P08684 whole entry): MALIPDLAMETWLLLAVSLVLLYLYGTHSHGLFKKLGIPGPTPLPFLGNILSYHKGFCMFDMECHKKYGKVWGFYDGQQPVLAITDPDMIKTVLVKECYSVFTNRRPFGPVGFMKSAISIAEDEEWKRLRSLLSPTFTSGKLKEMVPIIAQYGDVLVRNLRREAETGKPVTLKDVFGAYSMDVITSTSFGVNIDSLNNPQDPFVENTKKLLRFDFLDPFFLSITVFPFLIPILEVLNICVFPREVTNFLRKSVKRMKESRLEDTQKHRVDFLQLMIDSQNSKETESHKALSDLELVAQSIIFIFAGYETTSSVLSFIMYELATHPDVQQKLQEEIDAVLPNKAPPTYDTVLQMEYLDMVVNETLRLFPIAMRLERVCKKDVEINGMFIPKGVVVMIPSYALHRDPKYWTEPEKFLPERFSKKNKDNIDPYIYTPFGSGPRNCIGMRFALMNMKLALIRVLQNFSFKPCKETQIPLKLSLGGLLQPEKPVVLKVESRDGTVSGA
Procedure: A metabolic reaction was initiated by adding and mixing a test compound solution (final concentration 0.01 mmol/L) and a NADH/NADPH solution (final concentration 1 mmol/L) to a human liver microsome solution containing three CYP-specific substrates (final concentration 100 mmol/L potassium phosphate buffer solution (pH 7.4), 5 mmol/L magnesium chloride, 0.1 mg/mL human liver microsome, 0.005 mmol/L diclofenac (for CYP2C9), 0.01 mmol/L bufuralol (for […]), 0.005 mmol/L midazolam (for CYP3A4)). As an internal standard solution, a solution of each of stable isotopes of the metabolites (50 ng/mL [13C6] hydroxy diclofenac, 5 ng/mL [2H9] hydroxy bufuralol, and 5 ng/mL [13C6] hydroxy midazolam (all stable isotopes)) in methanol was prepared and used as a quenching solution.
Specifically, a metabolic reaction was initiated by adding and mixing 2 μL of a solution of a test compound in acetonitrile (or acetonitrile as a control) to 178 μL of a human liver microsome solution in ice water, followed by preincubation at 37° C. for 1 minute, and then adding 20 μL of a NADH/NADPH solution thereto. After incubation at 37° C. for 10 minutes, 50 μL of the reaction mixture was taken, and then it was added and mixed to 500 μL of a quenching solution to quech the reaction. The mixture was centrifuged (6130 g, 4° C., 10 minutes) and the supernatant was used as a sample for LC-MS/MS.
Peak area ratio ([peak area of metabolite]/[peak area of corresponding stable isotope]) was calculated for a metabolite and a stable isotope of the metabolite as measurement object. By comparing the peak area ratio of each test compound solution with that of the control, the inhibition rate (%) of each CYP species for each test compound was calculated from (1-[peak area ratio of each test compound solution]/[peak area ratio of control])×100.

Row | Compound | IC50 [1] [nM] | IC50 (dopamine (DA) uptake) [nM] | inhibition at 10 min, 0.01 mmol/L (CYP3A4) [%]
1 | COc1cc(N2CC(C)(C)N[C@H]3CCCC[C@@H]32)ccc1OC(F)(F)CO [Example 26] | 21.3 | 213 | 
2 | CC1(C)CN(c2ccc(OC(F)(F)CO)cc2)[C@@H]2CCCC[C@H]2N1 [Example 21] | 69 | 199 | 
3 | OCCOc1c(F)cc(N2CC3(CCC3)N[C@H]3CCCC[C@@H]32)cc1Cl [Example 6] | 8.4 | 5.8 | 23.3
4 | Cc1cc(N2CC(C)(C)N[C@@H]3CCCC[C@H]32)ccc1OC(F)(F)CO [Example 32] | 7.5 | 60.7 | 
5 | CC1(C)CN(c2cc(F)c(OCCO)c(F)c2)[C@H]2CCCC[C@@H]2N1 [Example 34, 2-(4-((4aS,8aS)-3,3-dimethyloctahydroquinoxalin-1(2H)-yl)-2,6-difluorophenoxy)ethan-1-ol] | 5.9 | 73.2 | 
6 | CC1(C)CN(c2ccc(OCCO)c(Cl)c2)[C@H]2CCCC[C@@H]2N1 [Example 27, 2-(2-chloro-4-((4aS,8aS)-3,3-dimethyloctahydroquinoxalin-1(2H)-yl)phenoxy)ethan-1-ol] | 7.7 | 99 | 
7 | CC1(C)CN(c2cc(F)c(OCCO)c(F)c2)[C@@H]2CCCC[C@H]2N1 [Example 35] | 6.8 | 59.7 | 
8 | C[C@@H]1CN(c2ccc(OC(F)(F)CO)c(Cl)c2)[C@H]2CCCC[C@@H]2N1 [Example 19] | 2.4 | 47.4 | 16.1
9 | Cc1cc(N2CC(C)(C)N[C@H]3CCCC[C@@H]32)ccc1OC(F)(F)CO [Example 31] | 5.5 | 56.4 | 
10 | CC1(C)CN(c2ccc(OCCO)c(Cl)c2)[C@@H]2CCCC[C@H]2N1 [Example 28] | 9.7 | 76.5 | 
11 | COc1cc(N2CC3(CCC3)N[C@H]3CCCC[C@@H]32)ccc1OCCO [Example 11] | 91 | 97.9 | -1.3
12 | C[C@@H]1CN(c2cc(F)c(OCCO)c(Cl)c2)[C@H]2CCCC[C@@H]2N1 [Example 17, 2-(2-chloro-6-fluoro-4-((3R,4aS,8aS)-3-methyloctahydroquinoxalin-1(2H)-yl)phenoxy)ethan-1-ol 1/2fumarate] | 2.7 | 7.6 | 
13 | C[C@H]1CN(c2cc(F)c(OCCO)c(Cl)c2)[C@H]2CCCC[C@H]2N1 [Example 18] | 13.3 | 42.9 | 
14 | CC1(C)CN(c2ccc(OC(F)(F)CO)cc2)[C@H]2CCCC[C@@H]2N1 [Example 20, 2-(4-((4aS,8aS)-3,3-dimethyloctahydroquinoxalin-1(2H)-yl)phenoxy)-2,2-difluoroethan-1-ol] | 4.4 | 90.9 | 

Further lines, results first:

Row | IC50 [1] [nM] | IC50 (dopamine (DA) uptake) [nM] | inhibition at 10 min, 0.01 mmol/L (CYP3A4) [%] | Compound
15 | 6.1 | 60.2 | -2.7 | CC1(C)CN(c2ccc(OC(F)(F)CO)cc2F)[C@H]2CCCC[C@H]2N1 [Example 61, 2-(4-((4aR,8aS)-3,3-dimethyloctahydroquinoxalin-1(2H)-yl)-3-fluorophenoxy)-2,2-difluoroethan-1-ol 1/2fumarate]
16 | 5.2 | 37.5 | -10.7 | CC1(C)CN(c2ccc(OCCO)c(Cl)c2)[C@H]2CCCC[C@H]2N1 [Example 44, 2-(2-chloro-4-((4aR,8aS)-3,3-dimethyloctahydroquinoxalin-1(2H)-yl)phenoxy)ethan-1-ol 1/2fumarate]
17 | 6.3 | 81.4 | -3.4 | CC1(C)CN(c2cc(F)c(OC(F)(F)CO)cc2F)[C@H]2CCCC[C@H]2N1 [Example 71]
18 | 6.9 | 273 | -1.6 | CC1(C)CN(c2cc(Br)c(OCCO)cc2F)[C@H]2CCCC[C@H]2N1 [Example 62]
19 | 9.7 | 35.3 | 9.9 | CC1(C)CN(c2cc(Cl)c(OC(F)(F)CO)cc2F)[C@H]2CCCC[C@@H]2N1 [Example 75]
20 | 3.6 | 85.1 | 6.1 | CC1(C)CN(c2ccc(OCCO)c(Br)c2F)[C@H]2CCCC[C@H]2N1 [Example 63]
21 | 4.3 | 41.1 | 1.1 | CC1(C)CN(c2ccc(OCCO)c3occc23)[C@H]2CCCC[C@H]2N1 [Example 51]
22 | 5.8 | 224 | 17.1 | Cc1c(OC(F)(F)CO)ccc(N2CC(C)(C)N[C@H]3CCCC[C@@H]32)c1F [Example 79]
23 | 8.8 | 60.5 | 12.4 | CC1(C)CN(c2cc(Cl)c(OC(F)(F)CO)cc2F)[C@@H]2CCCC[C@H]2N1 [Example 76]
24 | 12.4 | 90 | 17.6 | CC1(C)CN(c2ccc(OC(F)(F)CO)c(Cl)c2F)[C@@H]2CCCC[C@H]2N1 [Example 80]
25 | 34.5 | 81.9 |  | CN1[C@H]2CCCC[C@@H]2N(c2ccc(OC(F)(F)CO)cc2)CC1(C)C [Example 37, 2,2-difluoro-2-(4-((4aS,8aS)-3,3,4-trimethyloctahydroquinoxalin-1(2H)-yl)phenoxy)ethan-1-ol]
26 | 2.4 | 68.7 | 5.9 | CC1(C)CN(c2ccc(OC(F)(F)CO)c(F)c2F)[C@H]2CCCC[C@H]2N1 [Example 73]
27 | 4.9 | 88 | 8.6 | Cc1c(N2CC(C)(C)N[C@@H]3CCCC[C@@H]32)ccc(OC(F)(F)CO)c1F [Example 57]
28 | 6.6 | 68.6 | -9.2 | Cc1cc(N2CC(C)(C)N[C@@H]3CCCC[C@@H]32)ccc1OC(F)(F)CO [Example 48]
29 | 6.4 | 58.4 | 13.1 | Cc1cc(N2CC(C)(C)N[C@@H]3CCCC[C@@H]32)cc(F)c1OC(F)(F)CO [Example 58]
30 | 5.8 | 214 | 2 | CC1(C)CN(c2ccc(OCCO)c3occc23)[C@@H]2CCCC[C@@H]2N1 [Example 50]
31 | 7.9 | 241 | -2.4 | CC1(C)CN(c2cc(F)c(OCCO)cc2F)[C@H]2CCCC[C@H]2N1 [Example 72]
32 | 8.3 | 74.4 | 0.1 | CC1(C)CN(c2ccc(OCCO)c(F)c2)[C@H]2CCCC[C@H]2N1 [Example 52]
33 | 5.1 | 25.6 |  | CC1(C)CN(c2cc(F)c(OCCO)c(F)c2)[C@H]2CCCC[C@H]2N1 [Example 36]
